Here are results for 19 molecules from PubChem BioAssay AID330 (DTP/NCI, 2004).

Where “and” joins values, the source holds several entries; their conditions need not be identical. Equal entries are not always repeated. Toxic doses and inconclusive results are not listed.

For the assay, the system named is P388 leukemia ip, CD2F1 mice, survival T/C. In words: NCI In Vivo Anticancer Drug Screen. Data for tumor model P388 Leukemia (intraperitoneal) in CD2F1 (CDF1) mice. As to conditions: endpoint: median survival time, higher = longer survival. The essentials:
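Mice carrying the transplanted tumor received test compound or vehicle. Survival was recorded in each group, and the value is the treated-group measurement divided by that of the vehicle-treated control group.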

Setting [1] is: dose: 50.0 mg/kg/injection, schedule: Q01DX005 (ip), vehicle: saline with Tween-80.
The mark [2] stands for this setting: dose: 100.0 mg/kg/injection, schedule: Q01DX005 (ip), vehicle: saline with Tween-80.
Where [3] appears, read: dose: 50.0 mg/kg/injection, schedule: Q01DX009 (ip), vehicle: Klucel (hydroxypropylcellulose) (HPC).
The mark [4] stands for this setting: dose: 100.0 mg/kg/injection, schedule: Q01DX009 (ip), vehicle: Klucel (hydroxypropylcellulose) (HPC).
Where [5] appears, read: dose: 200.0 mg/kg/injection, schedule: Q01DX009 (ip), vehicle: Klucel (hydroxypropylcellulose) (HPC).
The mark [6] stands for this setting: dose: 100.0 mg/kg/injection, schedule: Q04DX003 (ip), vehicle: saline.
[7] abbreviates: dose: 200.0 mg/kg/injection, schedule: Q04DX003 (ip), vehicle: saline.
The mark [8] stands for this setting: dose: 12.5 mg/kg/injection, schedule: Q01DX005 (ip), vehicle: Klucel (hydroxypropylcellulose) (HPC).
Setting [9] is: dose: 25.0 mg/kg/injection, schedule: Q01DX005 (ip), vehicle: Klucel (hydroxypropylcellulose) (HPC).
[10] abbreviates: dose: 50.0 mg/kg/injection, schedule: Q01DX005 (ip), vehicle: Klucel (hydroxypropylcellulose) (HPC).

Regarding `Cc1ccc(S(=O)(=O)/C=C/CCl)cc1`, the T/C by setting is: under setting [1], 103 % of control; under setting [2], 113 % of control.

Turning to `O=C1C(=C2CCCC2)CC/C1=C1/SS/C(=C2/CCC(=C3CCCC3)C2=O)S1`, the T/C under setting [3] is 99 % of control, the T/C under setting [4] was 101 % of control and the T/C under setting [5] was 100 % of control.

In the case of `C=C(/C=C/C1OC2OC(C)(C)OC2C1OC)OP(=O)(OCC)OCC` (stereo not given), the T/C reads like this: (dose: 100.0 mg/kg/injection, schedule: Q04DX002 (ip), vehicle: saline with Tween-80) 103 % of control; (dose: 200.0 mg/kg/injection, schedule: Q04DX002 (ip), vehicle: saline with Tween-80) 100 % of control; (dose: 400.0 mg/kg/injection, schedule: Q04DX002 (ip), vehicle: saline with Tween-80) 91 % of control.

As to `CN(C)C(C#C[Si](C)(C)C)C1(O)CCCCC1` (stereo not given), the T/C is 103 % of control under setting [6]; 105 % of control under setting [7]; 103 % of control (dose: 400.0 mg/kg/injection, schedule: Q04DX003 (ip), vehicle: saline).

In the case of `COc1ccc2ncc(COC(=O)Nc3ccccc3)c(COC(=O)Nc3ccccc3)c2c1`, the T/C under setting [8] was 102 % of control and 106 % of control; the T/C under setting [9] is 100 % of control and 94 % of control; the T/C under setting [10] is 100 % of control and 95 % of control and 97 % of control.

Regarding `CC1(C)CC(NC2CCCCC2)=CC(=NC2CCCCC2)N1`, the T/C runs as follows: (dose: 6.25 mg/kg/injection, schedule: Q01DX005 (ip), vehicle: Klucel (hydroxypropylcellulose) (HPC)) 100 % of control; under setting [8], 105 % of control; under setting [9], 99 % of control and 101 % of control; under setting [10], 100 % of control.

For `CCOC(=O)C1=Nc2ccccc2N=C(C2C(=O)C=C(C)OC2=O)C1` (stereo not given), the T/C is 108 % of control (dose: 100.0 mg/kg/injection, schedule: Q01DX001 (ip), vehicle: saline); 104 % of control (dose: 200.0 mg/kg/injection, schedule: Q01DX001 (ip), vehicle: saline); 103 % of control (dose: 400.0 mg/kg/injection, schedule: Q01DX001 (ip), vehicle: saline).

`CC(C)CC(Br)C(=O)NCC(=O)O` (stereo not given): the T/C runs as follows: (dose: 100.0 mg/kg/injection, schedule: Q04DX003 (ip), vehicle: saline with Tween-80) 104 % of control; (dose: 200.0 mg/kg/injection, schedule: Q04DX003 (ip), vehicle: saline with Tween-80) 100 % of control; (dose: 400.0 mg/kg/injection, schedule: Q04DX003 (ip), vehicle: saline with Tween-80) 104 % of control.

Consider `COc1cccc2c1C(=O)c1c(O)c3c(c(O)c1C2=O)C[C@@](O)(C(=O)COC(=O)c1cccnc1)C[C@@H]3OC1CC(N)C(O)C(C)O1` (stereo not given in full), for which the T/C (dose: 0.25 mg/kg/injection, schedule: Q04DX003 (ip), vehicle: saline) is 114 % of control; the T/C (dose: 0.5 mg/kg/injection, schedule: Q01DX009 (ip), vehicle: saline with Tween-80) was 118 % of control; the T/C (dose: 0.5 mg/kg/injection, schedule: Q01DX009 (ip), vehicle: water) is 163 % of control; the T/C (dose: 0.5 mg/kg/injection, schedule: Q04DX003 (ip), vehicle: saline) was 113 % of control; the T/C (dose: 0.5 mg/kg/injection, schedule: Q04DX003 (ip), vehicle: water) is 109 % of control; the T/C (dose: 1.0 mg/kg/injection, schedule: Q01DX009 (ip), vehicle: saline with Tween-80) is 122 % of control. For the same molecule, the T/C (dose: 1.0 mg/kg/injection, schedule: Q01DX009 (ip), vehicle: water) is 167 % of control; the T/C (dose: 1.0 mg/kg/injection, schedule: Q04DX003 (ip), vehicle: saline) is 116 % of control and 122 % of control; the T/C (dose: 1.0 mg/kg/injection, schedule: Q04DX003 (ip), vehicle: water) is 119 % of control; the T/C (dose: 1.32 mg/kg/injection, schedule: Q01DX009 (ip), vehicle: saline sonified) is 209 % of control; the T/C (dose: 2.0 mg/kg/injection, schedule: Q01DX009 (ip), vehicle: saline sonified) was 209 % of control; the T/C (dose: 2.0 mg/kg/injection, schedule: Q01DX009 (ip), vehicle: water) was 229 % of control. For the same molecule, the T/C reads like this: (dose: 2.0 mg/kg/injection, schedule: Q04DX003 (ip), vehicle: saline) 108 % of control; (dose: 2.0 mg/kg/injection, schedule: Q04DX003 (ip), vehicle: water) 119 % of control; (dose: 3.0 mg/kg/injection, schedule: Q01DX009 (ip), vehicle: saline sonified) 104 % of control; (dose: 4.0 mg/kg/injection, schedule: Q01DX009 (ip), vehicle: water) 102 % of control; (dose: 4.0 mg/kg/injection, schedule: Q04DX003 (ip), vehicle: saline) 113 % of control; (dose: 4.0 mg/kg/injection, schedule: Q04DX003 (ip), vehicle: water) 119 % of control. In addition, the T/C is 118 % of control (dose: 8.0 mg/kg/injection, schedule: Q04DX003 (ip), vehicle: saline); 172 % of control (dose: 8.0 mg/kg/injection, schedule: Q04DX003 (ip), vehicle: water); 166 % of control (dose: 16.0 mg/kg/injection, schedule: Q04DX003 (ip), vehicle: water); 95 % of control (dose: 64.0 mg/kg/injection, schedule: Q04DX003 (ip), vehicle: saline).

For `CCOC(=O)CNCCN(CC)CC`, the T/C reads like this: (dose: 100.0 mg/kg/injection, schedule: Q01DX001 (ip), vehicle: saline with Tween-80) 109 % of control; (dose: 200.0 mg/kg/injection, schedule: Q01DX001 (ip), vehicle: saline with Tween-80) 95 % of control; (dose: 400.0 mg/kg/injection, schedule: Q01DX001 (ip), vehicle: saline with Tween-80) 100 % of control.

As for `[Se]c1nccn2cnnc12`, the T/C is 99 % of control and 101 % of control (dose: 1.56 mg/kg/injection, schedule: Q01DX001 (ip), vehicle: saline); 100 % of control and 96 % of control (dose: 3.12 mg/kg/injection, schedule: Q01DX001 (ip), vehicle: saline); 99 % of control and 105 % of control (dose: 6.25 mg/kg/injection, schedule: Q01DX001 (ip), vehicle: saline); 103 % of control and 109 % of control (dose: 12.5 mg/kg/injection, schedule: Q01DX001 (ip), vehicle: saline).

Regarding `Nc1cccc(SC(CC(=O)c2ccc(-c3ccccc3)cc2)c2ccco2)c1` (stereo not given), the T/C was 97 % of control under setting [3] and 101 % of control under setting [4].

In the case of `COc1ccc(/C=C/C(=O)OC2CC34CCNC35CC(OC5(OC)C2OC)c2ccc(OC)c(O)c24)cc1O` (stereo not given), the T/C is 100 % of control under setting [8], 100 % of control under setting [9] and 97 % of control under setting [10].

Take `Fc1ccc(NC(=S)SCc2ccc(Cl)c(Cl)c2)cc1`: the T/C by setting is: (dose: 50.0 mg/kg/injection, schedule: Q01DX009 (ip), vehicle: suspension in saline) 90 % of control; (dose: 100.0 mg/kg/injection, schedule: Q01DX009 (ip), vehicle: suspension in saline) 90 % of control; (dose: 200.0 mg/kg/injection, schedule: Q01DX009 (ip), vehicle: suspension in saline) 102 % of control.

As for `CC/C(=N/NS(=O)(=O)c1ccc(C)cc1)c1ccc(Cl)cc1`, the T/C by setting is: (dose: 50.0 mg/kg/injection, schedule: Q01DX009 (ip), vehicle: saline) 97 % of control; (dose: 100.0 mg/kg/injection, schedule: Q01DX009 (ip), vehicle: saline) 92 % of control; (dose: 200.0 mg/kg/injection, schedule: Q01DX009 (ip), vehicle: saline) 99 % of control.

In the case of `C[C@]12C=CC(=O)C=C1CC[C@@H]1[C@@H]2CC[C@@]2(C)[C@H]1CC[C@]2(C)O`, the T/C was 97 % of control under setting [1], 95 % of control under setting [2], 110 % of control under setting [4] and 90 % of control under setting [5].

As for `Cc1c(N=O)c(-c2ccccc2)n(O)[n+]1[O-]`, the T/C (dose: 60.0 mg/kg/injection, schedule: Q01DX005 (ip), vehicle: saline with Tween-80) is 102 % of control; the T/C (dose: 120.0 mg/kg/injection, schedule: Q01DX005 (ip), vehicle: saline with Tween-80) is 101 % of control; the T/C (dose: 240.0 mg/kg/injection, schedule: Q01DX005 (ip), vehicle: saline with Tween-80) was 102 % of control.

Turning to `CCOC(=O)c1cnc(-c2ccccc2)n(-c2ccccc2)c1=O`, the T/C under setting [10] was 105 % of control and the T/C (dose: 100.0 mg/kg/injection, schedule: Q01DX005 (ip), vehicle: Klucel (hydroxypropylcellulose) (HPC)) was 107 % of control.

As for `Cn1c(=O)c2c(nc([N+](=O)[O-])n2C)n(C)c1=O`, the T/C runs as follows: under setting [6], 104 % of control; under setting [7], 100 % of control.
